Reference: patent US20060069132A1, “Azolecarboxamide herbicides” (priority 2004, published 2006)

Legend:
morningglory = test: Test B pre-/postemergence herbicide test; type: in vivo, Ipomoea coccinea
Method in brief: (§1)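 Herbicidal effect was judged by eye on a 0–100 scale after plants stood 13 to 15 days in the greenhouse following pre- or postemergence treatment with surfactant-containing formulations.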

[1] = system: small flower umbrella sedge; test: Test B flooded paddy test; type: in vivo, Cyperus difformis; settings: 1000 g ai/ha, scale 0 to 100 (0 no effect, 100 complete control)
Method in brief: (§2)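 Treated at 2-leaf (paddy) or 1–4-leaf, 2–18 cm (postemergence); greenhouse 13–15 d; visual score vs control, 0 none to 100 complete control; dash = not tested.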

rice [2] = test: Test B pre-/postemergence herbicide test; type: in vivo, Oryza sativa; settings: 0 = no effect, 100 = complete control, preemergence; for Rice plant response rating (0 to 100 scale): 125 g ai/ha; for Plant response rating, Rice: 500 g ai/ha, visual rating
Method in brief: (§3)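 Seeds were planted and treated preemergence with compounds formulated in a non-phytotoxic solvent mixture containing surfactant, while plants at the 1- to 4-leaf stage (2 to 18 cm) received postemergence sprays. Flooded paddy plants were grown to the 2-leaf stage. After 13 to 15 days in a greenhouse, injury was visually rated 0–100 against untreated controls.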

ducksalad = test: Test B flooded paddy test; type: in vivo, Heteranthera limosa; settings: 1000 g ai/ha, scale 0 to 100 (0 no effect, 100 complete control)
Method in brief: as §2

wild oat = test: Test B postemergence herbicide test; type: in vivo, Avena fatua
Method in brief: (§4)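 Plants grow to 1- to 4-leaf stage (2–18 cm) for postemergence spraying, or to 2-leaf stage for the paddy test. Formulated compound is applied. Greenhouse holding lasts 13–15 days. Response is scored visually relative to controls, 0 no effect to 100 complete control; a dash means no result.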

large crabgrass = test: Test B pre-/postemergence herbicide test; type: in vivo, Digitaria sanguinalis
Method in brief: as §3

pigweed = test: Test B pre-/postemergence herbicide test; type: in vivo, Amaranthus retroflexus
Method in brief: as §3

blackgrass = test: Test B postemergence herbicide test; type: in vivo, Alopecurus myosuroides
Method in brief: as §2

barnyardgrass [3] = test: Test B pre-/postemergence herbicide test; type: in vivo, Echinochloa crus-galli
Method in brief: as §1

rice [4] = test: Test B flooded paddy test; type: in vivo, Oryza sativa; settings: 1000 g ai/ha, scale 0 to 100 (0 no effect, 100 complete control)
Method in brief: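 Visual ratings, 0 (no effect) to 100 (complete control), made versus controls after 13–15 d greenhouse. Paddy plants treated at 2-leaf stage; postemergence plants at 1- to 4-leaf stage, 2–18 cm tall.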

cocklebur = test: Test B pre-/postemergence herbicide test; type: in vivo, Xanthium strumarium
Method in brief: as §1

Surinam grass = test: Test B pre-/postemergence herbicide test; type: in vivo, Urochloa decumbens
Method in brief: as §3

wheat = test: Test B postemergence herbicide test; type: in vivo, Triticum aestivum; design: key to Wheat plant response rating: 0 = no effect, 100 = complete control
Method in brief: as §4

giant foxtail = test: Test B pre-/postemergence herbicide test; type: in vivo, Setaria faberi
Method in brief: as §3

velvetleaf = test: Test B pre-/postemergence herbicide test; type: in vivo, Abutilon theophrasti
Method in brief: as §3

lambsquarters = test: Test B pre-/postemergence herbicide test; type: in vivo, Chenopodium album
Method in brief: as §3

corn = test: Test B pre-/postemergence herbicide test; type: in vivo, Zea mays
Method in brief: as §3

barnyardgrass [5] = test: Test B flooded paddy test; type: in vivo, Echinochloa crus-galli; settings: 1000 g ai/ha, scale 0 to 100 (0 no effect, 100 complete control)
Method in brief: as §2

[6] = 125 g ai/ha; 0 = no effect, 100 = complete control; preemergence
[7] = 500 g ai/ha; visual rating, 0 = no effect, 100 = complete control; preemergence
[8] = postemergence, 125 g ai/ha; visual rating, scale 0 (no effect) to 100 (complete control)
[9] = postemergence, 500 g ai/ha; scale 0 to 100, 0 is no effect, 100 is complete control
[10] = postemergence, 500 g ai/ha; visual rating, scale 0 (no effect) to 100 (complete control)
[11] = 125 g ai/ha; visual rating, scale 0 (no effect) to 100 (complete control); postemergence

CCN(CC)C(=O)c1cc(NC(=O)c2cc(C(C)(C)C)nn2CC)c(F)cc1F [Compound 253]
60: Ducksalad plant response rating (ducksalad)
30: Morningglory plant response rating (morningglory; [9]) | Oat, Wild plant response rating (wild oat; [9]) | Pigweed plant response rating (pigweed; [9]) | Plant response rating, Surinam Grass (Surinam grass; [7]) | Wheat plant response rating (wheat; [9]) | Plant response rating, Foxtail, Giant (giant foxtail; [7]) | Lambsquarters plant response rating (lambsquarters; [9])
0: Morningglory plant response rating (0 to 100 scale) (morningglory; [6]) | Plant response rating, Morningglory (morningglory; [7]) | Morningglory plant response rating (morningglory; [8]) | Rice plant response rating (0 to 100 scale) (rice [2]) | Plant response rating, Rice (rice [2]) | Crabgrass, Large plant response rating (large crabgrass; [8]) | Crabgrass, Large plant response rating (large crabgrass; [9]) | Barnyardgrass plant response rating (0 to 100 scale) (barnyardgrass [3]; [6]) | Barnyardgrass plant response rating (barnyardgrass [3]; [8]) | Cocklebur plant response rating (0 to 100 scale) (cocklebur; [6]) | Plant response rating, Cocklebur (cocklebur; [7]) | Surinam Grass plant response rating (Surinam grass; [8]) | Surinam Grass plant response rating (Surinam grass; [9]) | Foxtail, Giant plant response rating (0 to 100 scale) (giant foxtail; [6]) | Foxtail, Giant plant response rating (giant foxtail; [8]) | Foxtail, Giant plant response rating (giant foxtail; [9]) | Velvetleaf plant response rating (0 to 100 scale) (velvetleaf; [6]) | Lambsquarters plant response rating (0 to 100 scale) (lambsquarters; [6]) | Corn plant response rating (0 to 100 scale) (corn; [6]) | Plant response rating, Corn (corn; [7]) | Corn plant response rating (corn; [8]) | Corn plant response rating (corn; [9]) | Barnyardgrass plant response rating (barnyardgrass [5])
10: Plant response rating, Barnyardgrass (barnyardgrass [3]; [7]) | Barnyardgrass plant response rating (barnyardgrass [3]; [10]) | Cocklebur plant response rating (cocklebur; [8]) | Surinam Grass plant response rating (0 to 100 scale) (Surinam grass; [6]) | Velvetleaf plant response rating (velvetleaf; [8]) | Velvetleaf plant response rating (velvetleaf; [9])
50: Rice plant response rating (rice [4])
20: Sedge, Umbrella plant response rating [1] | Oat, Wild plant response rating (wild oat; [8]) | Crabgrass, Large plant response rating (0 to 100 scale) (large crabgrass; [6]) | Pigweed plant response rating (pigweed; [8]) | Blackgrass plant response rating (blackgrass; [8]) | Blackgrass plant response rating (blackgrass; [10]) | Cocklebur plant response rating (cocklebur; [10]) | Wheat plant response rating (wheat; [8]) | Plant response rating, Velvetleaf (velvetleaf; [7]) | Lambsquarters plant response rating (lambsquarters; [8])

CCn1nc(C(C)(C)C)cc1C(=O)Nc1cc(OC)ccc1OC [Compound 297]
30: Morningglory plant response rating (morningglory; [9]) | Ducksalad plant response rating (ducksalad) | Crabgrass, Large plant response rating (large crabgrass; [9]) | Surinam Grass plant response rating (Surinam grass; [9]) | Foxtail, Giant plant response rating (giant foxtail; [9]) | Barnyardgrass plant response rating (barnyardgrass [5])
80: Sedge, Umbrella plant response rating [1] | Plant response rating, Crabgrass, Large (large crabgrass; [7]) | Plant response rating, Lambsquarters (lambsquarters; [7])
20: Oat, Wild plant response rating (wild oat; [9]) | Crabgrass, Large plant response rating (0 to 100 scale) (large crabgrass; [6]) | Crabgrass, Large plant response rating (large crabgrass; [11]) | Blackgrass plant response rating (blackgrass; [9]) | Plant response rating, Barnyardgrass (barnyardgrass [3]; [7]) | Barnyardgrass plant response rating (barnyardgrass [3]; [9]) | Rice plant response rating (rice [4]) | Surinam Grass plant response rating (Surinam grass; [11]) | Plant response rating, Surinam Grass (Surinam grass; [7]) | Foxtail, Giant plant response rating (giant foxtail; [11]) | Lambsquarters plant response rating (lambsquarters; [9])
0: Morningglory plant response rating (morningglory; [11]) | Rice plant response rating (0 to 100 scale) (rice [2]) | Oat, Wild plant response rating (wild oat; [11]) | Pigweed plant response rating (0 to 100 scale) (pigweed; [6]) | Pigweed plant response rating (pigweed; [11]) | Barnyardgrass plant response rating (0 to 100 scale) (barnyardgrass [3]; [6]) | Cocklebur plant response rating (0 to 100 scale) (cocklebur; [6]) | Cocklebur plant response rating (cocklebur; [11]) | Plant response rating, Cocklebur (cocklebur; [7]) | Cocklebur plant response rating (cocklebur; [9]) | Wheat plant response rating (wheat; [11]) | Velvetleaf plant response rating (velvetleaf; [11]) | Lambsquarters plant response rating (0 to 100 scale) (lambsquarters; [6]) | Corn plant response rating (0 to 100 scale) (corn; [6]) | Plant response rating, Corn (corn; [7])
10: Morningglory plant response rating (0 to 100 scale) (morningglory; [6]) | Plant response rating, Morningglory (morningglory; [7]) | Plant response rating, Rice (rice [2]) | Blackgrass plant response rating (blackgrass; [11]) | Barnyardgrass plant response rating (barnyardgrass [3]; [11]) | Surinam Grass plant response rating (0 to 100 scale) (Surinam grass; [6]) | Wheat plant response rating (wheat; [9]) | Foxtail, Giant plant response rating (0 to 100 scale) (giant foxtail; [6]) | Plant response rating, Velvetleaf (velvetleaf; [7]) | Velvetleaf plant response rating (velvetleaf; [9]) | Lambsquarters plant response rating (lambsquarters; [11]) | Corn plant response rating (corn; [11])
60: Plant response rating, Foxtail, Giant (giant foxtail; [7])
100: Corn plant response rating (corn; [9])
40: Plant response rating, Pigweed (pigweed; [7]) | Pigweed plant response rating (pigweed; [9])
